Measured values reported in the NIST ThermoML archive (doi:10.1016/j.fluid.2005.06.010).

Assay: xn = mol fraction of the nth substance listed
Details: Fluid (supercritical or subcritical phases), Vibrating tube method

c1ccc2ccccc2c1 [naphthalene] + O=C=O
Details | mass density [kg/m3]
313.11 K, 8747 kPa, x1 = 0.0049 | 531.42
313.11 K, 8855 kPa, x1 = 0.0049 | 556.55
313.11 K, 8983 kPa, x1 = 0.0093 | 627.46
313.11 K, 9034 kPa, x1 = 0.0093 | 633.13
313.11 K, 9048 kPa, x1 = 0.0049 | 590.85
313.11 K, 9499 kPa, x1 = 0.0049 | 639
313.11 K, 9997 kPa, x1 = 0.0049 | 670.97
313.11 K, 10053 kPa, x1 = 0.0093 | 697.27
313.11 K, 11012 kPa, x1 = 0.0049 | 712.47
313.11 K, 11036 kPa, x1 = 0.0093 | 731.61
313.11 K, 11998 kPa, x1 = 0.0093 | 755.87
313.11 K, 12044 kPa, x1 = 0.0049 | 741.27
313.11 K, 12486 kPa, x1 = 0.0173 | 783.64
313.11 K, 12995 kPa, x1 = 0.0049 | 761.49
313.11 K, 13003 kPa, x1 = 0.0093 | 775.73
313.11 K, 13034 kPa, x1 = 0.0173 | 790.35
313.11 K, 14017 kPa, x1 = 0.0049 | 779.61
313.11 K, 14028 kPa, x1 = 0.0093 | 792.52
313.11 K, 14045 kPa, x1 = 0.0173 | 805.22
313.11 K, 14979 kPa, x1 = 0.0049 | 794.2
313.11 K, 14995 kPa, x1 = 0.0093 | 806.12
313.11 K, 15031 kPa, x1 = 0.0173 | 818.06
313.11 K, 16007 kPa, x1 = 0.0093 | 818.64
313.11 K, 16029 kPa, x1 = 0.0049 | 808.12
313.11 K, 16046 kPa, x1 = 0.0173 | 829.54
313.11 K, 16999 kPa, x1 = 0.0049 | 819.57
313.11 K, 17003 kPa, x1 = 0.0093 | 829.62
313.11 K, 17015 kPa, x1 = 0.0173 | 839.94
313.11 K, 18017 kPa, x1 = 0.0173 | 849.35
313.11 K, 18019 kPa, x1 = 0.0093 | 839.78
313.11 K, 18053 kPa, x1 = 0.0049 | 830.86
313.11 K, 19023 kPa, x1 = 0.0049 | 840.37
313.11 K, 19029 kPa, x1 = 0.0093 | 849.05
313.11 K, 19030 kPa, x1 = 0.0173 | 858.05
313.11 K, 19995 kPa, x1 = 0.0093 | 857.27
313.11 K, 20008 kPa, x1 = 0.0049 | 849.27
313.11 K, 20013 kPa, x1 = 0.0173 | 865.93
313.11 K, 20987 kPa, x1 = 0.0049 | 857.52
313.11 K, 20997 kPa, x1 = 0.0093 | 865.26
313.11 K, 21031 kPa, x1 = 0.0173 | 873.48
313.11 K, 21996 kPa, x1 = 0.0049 | 865.5
313.11 K, 22000 kPa, x1 = 0.0093 | 872.7
313.11 K, 22008 kPa, x1 = 0.0173 | 880.38
313.11 K, 22977 kPa, x1 = 0.0049 | 872.82
313.11 K, 22989 kPa, x1 = 0.0173 | 886.86
313.11 K, 22998 kPa, x1 = 0.0093 | 879.67
313.11 K, 24021 kPa, x1 = 0.0093 | 886.44
313.11 K, 24036 kPa, x1 = 0.0173 | 893.38
313.11 K, 24043 kPa, x1 = 0.0049 | 880.36
313.11 K, 24684 kPa, x1 = 0.0173 | 897.25
313.11 K, 24941 kPa, x1 = 0.0093 | 892.28
313.13 K, 10564 kPa, x1 = 0.0144 | 726.54
313.13 K, 10994 kPa, x1 = 0.0144 | 737.45
313.13 K, 12022 kPa, x1 = 0.0144 | 761.26
313.13 K, 13026 kPa, x1 = 0.0144 | 779.83
313.13 K, 13996 kPa, x1 = 0.0144 | 794.9
313.13 K, 15027 kPa, x1 = 0.0144 | 808.74
313.13 K, 16009 kPa, x1 = 0.0144 | 820.49
313.13 K, 16978 kPa, x1 = 0.0144 | 831.02
313.13 K, 17970 kPa, x1 = 0.0144 | 840.48
313.13 K, 19038 kPa, x1 = 0.0144 | 850.11
313.13 K, 20010 kPa, x1 = 0.0144 | 858.26
313.13 K, 21047 kPa, x1 = 0.0144 | 866.4
313.13 K, 22028 kPa, x1 = 0.0144 | 873.6
313.13 K, 23018 kPa, x1 = 0.0144 | 880.48
313.13 K, 24032 kPa, x1 = 0.0144 | 887.14
313.13 K, 25059 kPa, x1 = 0.0144 | 893.55
318.03 K, 13470 kPa, x1 = 0.0198 | 763.8
318.03 K, 13587 kPa, x1 = 0.0198 | 765.92
318.03 K, 13765 kPa, x1 = 0.0198 | 769.11
318.03 K, 13870 kPa, x1 = 0.0198 | 770.92
318.03 K, 13982 kPa, x1 = 0.0198 | 772.89
318.03 K, 14098 kPa, x1 = 0.0198 | 774.83
318.03 K, 14247 kPa, x1 = 0.0198 | 777.23
318.03 K, 14369 kPa, x1 = 0.0198 | 779.18
318.03 K, 14487 kPa, x1 = 0.0198 | 781.08
318.03 K, 14571 kPa, x1 = 0.0198 | 782.37
318.03 K, 14668 kPa, x1 = 0.0198 | 783.91
318.03 K, 14765 kPa, x1 = 0.0198 | 785.29
318.03 K, 14877 kPa, x1 = 0.0198 | 787
318.03 K, 14970 kPa, x1 = 0.0198 | 788.42
318.03 K, 15080 kPa, x1 = 0.0198 | 789.97
318.03 K, 15304 kPa, x1 = 0.0198 | 793.1
318.03 K, 15487 kPa, x1 = 0.0198 | 795.62
318.03 K, 16010 kPa, x1 = 0.0198 | 802.31
318.03 K, 16995 kPa, x1 = 0.0198 | 813.73
318.03 K, 17979 kPa, x1 = 0.0198 | 824.06
318.03 K, 18989 kPa, x1 = 0.0198 | 833.74
318.03 K, 20016 kPa, x1 = 0.0198 | 842.78
318.03 K, 20955 kPa, x1 = 0.0198 | 850.43
318.03 K, 21951 kPa, x1 = 0.0198 | 858.04
318.03 K, 22703 kPa, x1 = 0.0198 | 863.41
318.07 K, 18008 kPa, x1 = 0.0235 | 829.61
318.07 K, 18511 kPa, x1 = 0.0235 | 834.41
318.07 K, 19022 kPa, x1 = 0.0235 | 839.2
318.07 K, 19528 kPa, x1 = 0.0235 | 843.76
318.07 K, 20035 kPa, x1 = 0.0235 | 848.15
318.07 K, 20519 kPa, x1 = 0.0235 | 852.18
318.07 K, 21009 kPa, x1 = 0.0235 | 856.16
318.07 K, 22034 kPa, x1 = 0.0235 | 864
318.07 K, 23008 kPa, x1 = 0.0235 | 870.96
318.07 K, 23971 kPa, x1 = 0.0235 | 877.49
318.07 K, 24665 kPa, x1 = 0.0235 | 882.02
318.08 K, 12165 kPa, x1 = 0.0144 | 719.15
318.08 K, 12357 kPa, x1 = 0.0144 | 724.21
318.08 K, 12493 kPa, x1 = 0.0144 | 727.5
318.08 K, 13016 kPa, x1 = 0.0144 | 739.71
318.08 K, 13476 kPa, x1 = 0.0144 | 749.33
318.08 K, 14019 kPa, x1 = 0.0144 | 759.61
318.08 K, 14983 kPa, x1 = 0.0144 | 775.77
318.08 K, 14983 kPa, x1 = 0.0173 | 784.34
318.08 K, 15997 kPa, x1 = 0.0144 | 790.28
318.08 K, 16066 kPa, x1 = 0.0173 | 799.24
318.08 K, 16997 kPa, x1 = 0.0144 | 803.04
318.08 K, 16997 kPa, x1 = 0.0173 | 810.5
318.08 K, 17981 kPa, x1 = 0.0144 | 814.33
318.08 K, 18010 kPa, x1 = 0.0173 | 821.53
318.08 K, 18981 kPa, x1 = 0.0144 | 824.7
318.08 K, 19014 kPa, x1 = 0.0173 | 831.51
318.08 K, 20037 kPa, x1 = 0.0173 | 840.84
318.08 K, 20042 kPa, x1 = 0.0144 | 834.82
318.08 K, 20902 kPa, x1 = 0.0144 | 842.42
318.08 K, 20967 kPa, x1 = 0.0173 | 848.79
318.08 K, 21935 kPa, x1 = 0.0144 | 850.92
318.08 K, 22018 kPa, x1 = 0.0173 | 857.06
318.08 K, 22960 kPa, x1 = 0.0144 | 858.89
318.08 K, 22995 kPa, x1 = 0.0173 | 864.32
318.08 K, 23932 kPa, x1 = 0.0144 | 865.94
318.08 K, 23962 kPa, x1 = 0.0173 | 871.14
318.08 K, 24764 kPa, x1 = 0.0173 | 876.56
318.08 K, 24829 kPa, x1 = 0.0144 | 872.11
318.11 K, 9524 kPa, x1 = 0.0065 | 513.41
318.11 K, 9601 kPa, x1 = 0.0049 | 505.2
318.11 K, 9622 kPa, x1 = 0.0065 | 527.97
318.11 K, 9697 kPa, x1 = 0.0049 | 521.21
318.11 K, 9722 kPa, x1 = 0.0065 | 543.81
318.11 K, 9775 kPa, x1 = 0.0049 | 532.95
318.11 K, 9801 kPa, x1 = 0.0065 | 554.22
318.11 K, 9898 kPa, x1 = 0.0065 | 566.44
318.11 K, 9974 kPa, x1 = 0.0049 | 559.06
318.11 K, 9975 kPa, x1 = 0.0065 | 575.84
318.11 K, 10075 kPa, x1 = 0.0065 | 586.3
318.11 K, 10181 kPa, x1 = 0.0065 | 596.66
318.11 K, 10293 kPa, x1 = 0.0065 | 606.9
318.11 K, 10405 kPa, x1 = 0.0065 | 616.37
318.11 K, 10523 kPa, x1 = 0.0049 | 610.25
318.11 K, 10629 kPa, x1 = 0.0065 | 632.61
318.11 K, 10763 kPa, x1 = 0.0093 | 652.77
318.11 K, 10830 kPa, x1 = 0.0065 | 645.51
318.11 K, 10978 kPa, x1 = 0.0093 | 663.58
318.11 K, 10980 kPa, x1 = 0.0049 | 639.71
318.11 K, 11049 kPa, x1 = 0.0065 | 657.73
318.11 K, 11516 kPa, x1 = 0.0065 | 679.19
318.11 K, 11989 kPa, x1 = 0.0093 | 702.27
318.11 K, 12007 kPa, x1 = 0.0049 | 684.72
318.11 K, 12072 kPa, x1 = 0.0065 | 699.49
318.11 K, 12537 kPa, x1 = 0.0065 | 713.68
318.11 K, 12998 kPa, x1 = 0.0093 | 729.76
318.11 K, 13017 kPa, x1 = 0.0065 | 726.51
318.11 K, 13024 kPa, x1 = 0.0049 | 715.37
318.11 K, 13986 kPa, x1 = 0.0049 | 737.86
318.11 K, 14066 kPa, x1 = 0.0093 | 752.41
318.11 K, 14069 kPa, x1 = 0.0065 | 749.53
318.11 K, 14967 kPa, x1 = 0.0093 | 768.35
318.11 K, 14970 kPa, x1 = 0.0049 | 756.77
318.11 K, 15010 kPa, x1 = 0.0065 | 766.43
318.11 K, 15879 kPa, x1 = 0.0065 | 779.94
318.11 K, 15977 kPa, x1 = 0.0049 | 773.28
